Laboratory results: the Biogen ADME set (Fang et al. 2023)
Values after ≈ are worked out from the molar mass of the structure shown.

Settings: for aqueous solubility: pH 6.8

Compound | MDR1-MDCK efflux ratio | fraction unbound, human plasma | fraction unbound, rat plasma | intrinsic clearance, human liver microsomes | intrinsic clearance, rat liver microsomes | aqueous solubility
CC(O)(C#Cc1ccc2c(c1)N(c1nc(N)ncc1Cl)CC2)c1nccs1 (stereo not drawn) | 5.75 | 0.00754 | 0.0188 | 72.5 mL/min/kg | 327 mL/min/kg | 
CSCc1csc(NC(C)=O)n1 | 0.631 |  |  | 19.2 mL/min/kg | 248 mL/min/kg | 27.9 µg/mL (≈ 138 µM)
Cc1[nH]c2ccc(Cl)cc2c1CC(=O)N1CCC(Cc2ncncc2C(N)=O)CC1 | 18.6 |  |  | 357 mL/min/kg | 1170 mL/min/kg | 46.5 µg/mL (≈ 109 µM)
CN1CCC(CNc2nccc3cccnc23)CC1 | 0.854 |  |  | ≤ 4.74 mL/min/kg | 1520 mL/min/kg | 
COc1cccc(C(=O)Nc2nccs2)c1 | 0.562 |  |  | 109 mL/min/kg | 605 mL/min/kg | 
N#Cc1cccc(-c2ccc3[nH]ccc3c2)n1 | 0.528 |  |  | 299 mL/min/kg | 657 mL/min/kg | 3.65 µg/mL (≈ 16.6 µM)
Cc1nc([C@H]2CC[C@H](CNC(=O)CN3CCC(c4ccccc4)CC3)CC2)ccc1C(N)=O | 14.9 |  |  | 37.3 mL/min/kg | 390 mL/min/kg | 70.2 µg/mL (≈ 156 µM)
O=C(Nc1nc2cccc(-c3ccc(CN4CCS(=O)(=O)CC4)cc3)n2n1)C1CC1 | 136 | 0.48 | 0.4 | ≤ 4.74 mL/min/kg | 19.4 mL/min/kg | 47.1 µg/mL (≈ 111 µM)
CN(C)CCN(Cc1ccccc1)C(=O)CCC(=O)Nc1ncc(-c2ccccc2)n1C | 38.2 |  |  | 92 mL/min/kg | 279 mL/min/kg | 59.1 µg/mL (≈ 136 µM)
c1ccc(CN2CCn3nccc3C2)cc1 | 0.584 |  |  | ≤ 4.74 mL/min/kg | 31 mL/min/kg | 15.3 µg/mL (≈ 71.7 µM)
CCCN(C)C(=O)Nc1cccc(-c2nnc3n2CCCCC3)c1 | 92.4 |  |  | ≤ 4.74 mL/min/kg | 44.5 mL/min/kg | 39.4 µg/mL (≈ 120 µM)
COc1ccc(-c2noc([C@@H]3CCCN3Cc3ccccc3)n2)cn1 | 0.592 |  |  | 89.6 mL/min/kg | 1150 mL/min/kg | 25.5 µg/mL (≈ 75.8 µM)
CCN(C(=O)N1CCC(CC(=O)N2CCN(C)CC2)CC1)C(C)C | 16.2 |  |  | 23.9 mL/min/kg | 54.7 mL/min/kg | 81.3 µg/mL (≈ 240 µM)
Cc1ccc(CC(=O)NCc2cccc(C(=O)Nc3ccccc3)c2)cc1 | 1.52 |  |  |  |  | 0.38 µg/mL (≈ 1.06 µM)
CCc1cnc(NCc2ccc(CN3CCCC3)cc2)nc1 | 1.06 |  |  | ≤ 4.74 mL/min/kg | 291 mL/min/kg | 31.8 µg/mL (≈ 107 µM)
CCCN(C(=O)c1ccccc1N)C(C)C |  |  |  | ≤ 4.74 mL/min/kg | 342 mL/min/kg | 
CN(CCCC1CCCC1)Cc1cc(=O)[nH]c(=O)[nH]1 | 0.839 |  |  | 7.57 mL/min/kg | 165 mL/min/kg | 
N#Cc1ccccc1-c1ccc(-c2nccn2-c2cccnc2)o1 | 1.48 |  |  | 87.9 mL/min/kg | 719 mL/min/kg | 29.7 µg/mL (≈ 95.2 µM)
Cn1cnnc1NC(=O)c1cnn2c1CCCC2 | 3.95 |  |  | ≤ 4.74 mL/min/kg | ≤ 10.7 mL/min/kg | 
Cc1ccc(CN(C)Cc2c(C)noc2C)o1 |  |  |  | 27.6 mL/min/kg | 1270 mL/min/kg | 31.6 µg/mL (≈ 135 µM)
CC(C)(C)c1nc(Cn2nnc3ccccc3c2=O)no1 | 0.68 |  |  | ≤ 4.74 mL/min/kg | 119 mL/min/kg | 34.7 µg/mL (≈ 122 µM)
Cn1nc(C2CC2)c2[nH]c(-c3cccc(CN4CCOCC4)c3)nc21 | 52 |  |  | 18.8 mL/min/kg | 244 mL/min/kg | 49.4 µg/mL (≈ 147 µM)
O=S(=O)(c1ccccc1)N(CC(F)(F)F)c1ccc(C(O)(C(F)(F)F)C(F)(F)F)cc1 |  |  |  | 7.61 mL/min/kg | 14.6 mL/min/kg | 
O=C(CN1CCC(c2ccccc2)CC1)N1CCNC1=O | 1.06 |  |  | ≤ 4.74 mL/min/kg | 65.2 mL/min/kg | 49.1 µg/mL (≈ 171 µM)
CC(C)c1nnc(CN2CCN(c3ccccc3Cl)CC2)o1 | 0.652 |  |  | 91 mL/min/kg | 869 mL/min/kg | 50.7 µg/mL (≈ 158 µM)
Cc1cc(C(F)(F)F)nc(N(C)Cc2c(C)noc2C)n1 |  |  |  | 91.7 mL/min/kg | 589 mL/min/kg | 
Cc1nc(NCc2cn(C)nc2-c2cccs2)n(C)n1 | 12.7 |  |  | ≤ 4.74 mL/min/kg | 27.9 mL/min/kg | 
CC[C@@H]1CN(c2ccc(C(=O)Nc3cn4cc(C)nc4cn3)c(F)c2)CCN1 | 2.39 |  |  |  |  | 

Compound | MDR1-MDCK efflux ratio | fraction unbound, human plasma | fraction unbound, rat plasma | intrinsic clearance, human liver microsomes | intrinsic clearance, rat liver microsomes | aqueous solubility
CN(C(=O)c1cc2ccc(C(C)(C)C)cc2[nH]1)C1(C#N)CCC1 | 0.492 |  |  |  |  | 0.22 µg/mL (≈ 0.711 µM)
Cc1c(CN2CCC(Nc3ncnc4sc(CC(F)(F)F)cc34)CC2)ccc2c1cc(C#N)n2Cc1cn[nH]c1 | 14.1 |  |  | 136 mL/min/kg | 105 mL/min/kg | 3.23 µg/mL (≈ 5.72 µM)
O=C(NCc1ccc(CN2CCS(=O)(=O)CC2)cc1)c1ccon1 |  |  |  | ≤ 4.74 mL/min/kg | ≤ 10.7 mL/min/kg | 
CC(C)c1nc(O)c2nnn(C[C@@H]3CCCN(C(=O)C(C)(C)C)C3)c2n1 | 34.4 |  |  | 29.4 mL/min/kg | 281 mL/min/kg | 43.9 µg/mL (≈ 122 µM)
NC(=O)c1cnc(NC2CC2)nc1CCNC(=O)C1(c2cccc(F)c2)CCOCC1 | 32.6 |  |  | 37.7 mL/min/kg | 88.6 mL/min/kg | 77.3 µg/mL (≈ 181 µM)
Cc1ccc(-c2ccccc2-c2nc3c(cnn3C3CCN(C)CC3)[nH]2)o1 | 40.1 |  |  | ≤ 4.74 mL/min/kg | 100 mL/min/kg | 40.5 µg/mL (≈ 112 µM)
O=C(CCn1cc(Br)cn1)Nc1nc2ccccc2n1CCN1CCOCC1 |  |  |  |  |  | 42.3 µg/mL (≈ 94.6 µM)
O=C(NC[C@@H]1CCN(c2ccccc2)C1)N1CCc2ccccc2C1 | 0.706 |  |  | 170 mL/min/kg | 2160 mL/min/kg | 11.9 µg/mL (≈ 35.5 µM)
Cc1ccccc1-n1nc(C(C)(C)C)cc1N | 0.607 |  |  | 6.55 mL/min/kg | ≤ 10.7 mL/min/kg | 44.8 µg/mL (≈ 195 µM)
CN1CCN(c2ccc3nc(-c4cc(C(C)(C)C)c(OCCCC(=O)NCCCN=[N+]=[N-])c(C(C)(C)C)c4)[nH]c3c2)CC1 |  |  |  | 177 mL/min/kg | 212 mL/min/kg | 
COc1ccccc1CNC(=O)C(C)N1CCCN(c2ccccc2C#N)CC1 (stereo not drawn) | 1.51 |  |  | 2190 mL/min/kg | 4020 mL/min/kg | 46.9 µg/mL (≈ 119 µM)
CC(C)c1nc2c(n1C)CCN(c1ncnc3ccsc13)C2 | 3.28 |  |  | 21.7 mL/min/kg | 567 mL/min/kg | 54.4 µg/mL (≈ 173 µM)
C[C@@H](NC(=O)N1CCC2(CCOCC2)CC1)c1ccc(F)cc1 | 2.32 |  |  | 6.19 mL/min/kg | 237 mL/min/kg | 
Cc1nc(-c2ccc(S(=O)(=O)N(C)C)cc2)cc(C(C)C)n1 | 0.669 |  |  | 34.6 mL/min/kg | 2230 mL/min/kg | 
CCCN(CCC1=CCCCC1)C(=O)Cc1n[nH]c(=O)[nH]1 | 11.3 |  |  | ≤ 4.74 mL/min/kg | 1270 mL/min/kg | 
O=C(c1ccccc1)N1CCN(C(=O)c2ccc(-c3ccccc3Cl)o2)CC1 | 0.683 |  |  | 126 mL/min/kg | 445 mL/min/kg | 34.9 µg/mL (≈ 88.4 µM)
Cc1ccc(-n2cc[nH]c(=O)c2=O)cc1 | 1.05 |  |  | ≤ 4.74 mL/min/kg | ≤ 10.7 mL/min/kg | 42.9 µg/mL (≈ 212 µM)
O=c1c2c(C(F)(F)F)cccc2ncn1CCc1ncc[nH]1 | 15.6 |  |  | 10.7 mL/min/kg | 257 mL/min/kg | 
OC1(Cn2nnc(-c3cccnc3)n2)CCCCC1 | 0.66 |  |  | ≤ 4.74 mL/min/kg | 142 mL/min/kg | 25.1 µg/mL (≈ 96.7 µM)
COc1ccc(Nc2nc(N)nc(CN3CCN(Cc4ccccc4)CC3)n2)cc1 | 10.9 |  |  | 25 mL/min/kg | 594 mL/min/kg | 65.1 µg/mL (≈ 161 µM)
CCONC(=O)c1cncn1-c1ccc(F)cc1 | 2.24 |  |  | ≤ 4.74 mL/min/kg | ≤ 10.7 mL/min/kg | 48 µg/mL (≈ 193 µM)
CC(=O)N1CCC(CCNc2ccc3ccc(F)cc3n2)CC1 | 0.795 |  |  | 21.5 mL/min/kg | 264 mL/min/kg | 46.2 µg/mL (≈ 146 µM)
COc1ccc(CC2CN3CCN(C(=O)OCc4ccccc4)CC3CO2)cc1 (stereo not drawn) | 0.797 |  |  | 33.2 mL/min/kg | 861 mL/min/kg | 
Brc1cnc(N2CCCN(c3ccccc3)CC2)nc1 |  |  |  | 121 mL/min/kg | 5670 mL/min/kg | 
O=C(NCc1ccc2c(c1)OCCO2)c1sccc1C1CC1 | 0.474 |  |  | 147 mL/min/kg | 2320 mL/min/kg | 31.2 µg/mL (≈ 98.9 µM)
Cc1cc2nc(CCC(=O)N3CCc4n[nH]cc4C3)[nH]c2cc1C | 24 |  |  | 17.4 mL/min/kg | 190 mL/min/kg | 
CN1CCN(S(=O)(=O)Cc2ccc(Cl)c(Cl)c2)CC1 | 0.562 |  |  | 33.9 mL/min/kg | 887 mL/min/kg | 
